≈ marks a conversion by molar mass, not a printed value. Blank lines part the entries; values can stand above or below the molecule they belong to.
Key:
[1] = biological target: T1, Phosphatidylinositol 4,5-bisphosphate 3-kinase catalytic subunit delta isoform (Homo sapiens, UniProt O00329); assay: Inhibition of PI3Kdelta (unknown origin) using PIP2 as substrate measured after 1 hr in presence of ATP by ADP-glo luminescence assay
T1 sequence (O00329 whole entry): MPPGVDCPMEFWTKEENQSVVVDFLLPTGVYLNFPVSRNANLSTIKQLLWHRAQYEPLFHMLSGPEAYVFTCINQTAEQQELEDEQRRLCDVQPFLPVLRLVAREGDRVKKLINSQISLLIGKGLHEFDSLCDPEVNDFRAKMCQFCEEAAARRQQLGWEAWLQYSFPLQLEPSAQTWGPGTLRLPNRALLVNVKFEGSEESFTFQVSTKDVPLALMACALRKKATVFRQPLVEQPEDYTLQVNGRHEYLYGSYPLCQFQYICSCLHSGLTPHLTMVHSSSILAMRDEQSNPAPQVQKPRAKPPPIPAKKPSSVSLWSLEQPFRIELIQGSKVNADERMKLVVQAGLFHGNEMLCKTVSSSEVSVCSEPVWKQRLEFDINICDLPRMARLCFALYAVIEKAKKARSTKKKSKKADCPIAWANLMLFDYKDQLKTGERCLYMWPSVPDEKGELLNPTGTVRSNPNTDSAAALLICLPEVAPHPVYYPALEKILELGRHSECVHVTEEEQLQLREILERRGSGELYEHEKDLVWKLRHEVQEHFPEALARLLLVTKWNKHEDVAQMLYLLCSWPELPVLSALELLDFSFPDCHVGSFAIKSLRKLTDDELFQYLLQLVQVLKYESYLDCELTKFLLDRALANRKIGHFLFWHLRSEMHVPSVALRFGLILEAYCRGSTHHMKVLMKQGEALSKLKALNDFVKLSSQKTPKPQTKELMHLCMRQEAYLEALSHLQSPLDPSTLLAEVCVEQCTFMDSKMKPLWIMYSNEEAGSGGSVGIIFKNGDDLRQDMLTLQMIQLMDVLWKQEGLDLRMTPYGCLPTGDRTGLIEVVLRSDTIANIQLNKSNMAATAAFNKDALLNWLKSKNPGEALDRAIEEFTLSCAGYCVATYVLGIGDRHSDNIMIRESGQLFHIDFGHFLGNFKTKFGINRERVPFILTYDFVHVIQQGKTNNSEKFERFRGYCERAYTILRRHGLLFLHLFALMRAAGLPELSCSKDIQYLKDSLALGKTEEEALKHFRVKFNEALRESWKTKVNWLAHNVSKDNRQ

[2] = biological target: Phosphatidylinositol 4,5-bisphosphate 3-kinase catalytic subunit alpha isoform (Homo sapiens, UniProt P42336); assay: Inhibition of PI3Kalpha (unknown origin) using PIP2 as substrate measured after 1 hr in presence of ATP by ADP-glo luminescence assay
Chain of Phosphatidylinositol 4,5-bisphosphate 3-kinase catalytic subunit alpha isoform (Homo sapiens, UniProt P42336) (P42336 whole entry, canonical isoform): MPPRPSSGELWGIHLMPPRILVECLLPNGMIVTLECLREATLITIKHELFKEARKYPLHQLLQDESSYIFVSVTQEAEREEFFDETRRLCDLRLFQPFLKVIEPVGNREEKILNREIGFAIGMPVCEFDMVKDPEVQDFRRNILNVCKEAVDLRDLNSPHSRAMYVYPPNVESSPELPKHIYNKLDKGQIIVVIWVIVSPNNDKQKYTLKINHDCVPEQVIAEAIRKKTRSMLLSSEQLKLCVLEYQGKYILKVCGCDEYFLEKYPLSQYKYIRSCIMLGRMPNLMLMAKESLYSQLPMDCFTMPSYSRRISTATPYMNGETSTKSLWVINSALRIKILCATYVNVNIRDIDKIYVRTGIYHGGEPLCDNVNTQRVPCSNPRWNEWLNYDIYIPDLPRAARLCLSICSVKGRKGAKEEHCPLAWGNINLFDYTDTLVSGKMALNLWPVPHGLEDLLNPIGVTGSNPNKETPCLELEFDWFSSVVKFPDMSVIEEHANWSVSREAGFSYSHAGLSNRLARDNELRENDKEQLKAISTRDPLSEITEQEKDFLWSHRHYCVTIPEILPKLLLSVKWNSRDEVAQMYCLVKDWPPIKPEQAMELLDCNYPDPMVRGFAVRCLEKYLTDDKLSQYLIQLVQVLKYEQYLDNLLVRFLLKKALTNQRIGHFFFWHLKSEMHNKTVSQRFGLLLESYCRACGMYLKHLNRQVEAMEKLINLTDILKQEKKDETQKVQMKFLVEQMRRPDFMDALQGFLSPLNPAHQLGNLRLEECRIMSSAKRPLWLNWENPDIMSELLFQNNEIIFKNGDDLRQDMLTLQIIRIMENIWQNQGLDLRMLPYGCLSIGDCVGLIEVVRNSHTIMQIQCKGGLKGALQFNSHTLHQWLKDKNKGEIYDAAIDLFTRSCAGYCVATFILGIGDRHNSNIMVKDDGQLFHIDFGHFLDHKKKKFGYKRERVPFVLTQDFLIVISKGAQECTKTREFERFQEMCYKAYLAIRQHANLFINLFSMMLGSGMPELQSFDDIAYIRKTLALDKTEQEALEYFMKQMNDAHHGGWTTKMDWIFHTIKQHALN

[3] = biological target: Serine/threonine-protein kinase mTOR (Homo sapiens, UniProt P42345); assay: Inhibition of mTOR (unknown origin)
[4] = biological target: T2, Phosphatidylinositol 4,5-bisphosphate 3-kinase catalytic subunit beta isoform (Homo sapiens, UniProt P42338); assay: Inhibition of PI3Kbeta in LPA stimulated human PC-3 cells incubated for 10 mins by AlphaLISA assay; assay type: cell-based
Pfeiffer [5] = assay: Induction of apoptosis in human Pfeiffer cells assessed as necrotic cells at 2 uM incubated for 48 hrs by annexin V-FITC staining based flow cytometry (reference value: 6.62 %); assay type: functional
Rec1 = assay: Antiproliferative activity against human REC1 cells assessed as cell growth inhibition incubated for 96 hrs by cell titer glo assay; assay type: functional, cell-based; conditions: Rec1, 96 h
Z-138 = assay: Antiproliferative activity against human Z138 cells assessed as cell growth inhibition incubated for 96 hrs by cell titer glo assay; assay type: functional, cell-based; conditions: Z-138, 96 h
[6] = Solubility of the compound in PBS; assay type: physicochemical
[7] = biological target: Phosphatidylinositol 4,5-bisphosphate 3-kinase catalytic subunit gamma isoform (Homo sapiens, UniProt P48736); assay: Inhibition of PI3Kgamma (unknown origin) using PIP2 as substrate measured after 1 hr in presence of ATP by ADP-glo luminescence assay
Chain of Phosphatidylinositol 4,5-bisphosphate 3-kinase catalytic subunit gamma isoform (Homo sapiens, UniProt P48736) (P48736 whole entry, canonical isoform): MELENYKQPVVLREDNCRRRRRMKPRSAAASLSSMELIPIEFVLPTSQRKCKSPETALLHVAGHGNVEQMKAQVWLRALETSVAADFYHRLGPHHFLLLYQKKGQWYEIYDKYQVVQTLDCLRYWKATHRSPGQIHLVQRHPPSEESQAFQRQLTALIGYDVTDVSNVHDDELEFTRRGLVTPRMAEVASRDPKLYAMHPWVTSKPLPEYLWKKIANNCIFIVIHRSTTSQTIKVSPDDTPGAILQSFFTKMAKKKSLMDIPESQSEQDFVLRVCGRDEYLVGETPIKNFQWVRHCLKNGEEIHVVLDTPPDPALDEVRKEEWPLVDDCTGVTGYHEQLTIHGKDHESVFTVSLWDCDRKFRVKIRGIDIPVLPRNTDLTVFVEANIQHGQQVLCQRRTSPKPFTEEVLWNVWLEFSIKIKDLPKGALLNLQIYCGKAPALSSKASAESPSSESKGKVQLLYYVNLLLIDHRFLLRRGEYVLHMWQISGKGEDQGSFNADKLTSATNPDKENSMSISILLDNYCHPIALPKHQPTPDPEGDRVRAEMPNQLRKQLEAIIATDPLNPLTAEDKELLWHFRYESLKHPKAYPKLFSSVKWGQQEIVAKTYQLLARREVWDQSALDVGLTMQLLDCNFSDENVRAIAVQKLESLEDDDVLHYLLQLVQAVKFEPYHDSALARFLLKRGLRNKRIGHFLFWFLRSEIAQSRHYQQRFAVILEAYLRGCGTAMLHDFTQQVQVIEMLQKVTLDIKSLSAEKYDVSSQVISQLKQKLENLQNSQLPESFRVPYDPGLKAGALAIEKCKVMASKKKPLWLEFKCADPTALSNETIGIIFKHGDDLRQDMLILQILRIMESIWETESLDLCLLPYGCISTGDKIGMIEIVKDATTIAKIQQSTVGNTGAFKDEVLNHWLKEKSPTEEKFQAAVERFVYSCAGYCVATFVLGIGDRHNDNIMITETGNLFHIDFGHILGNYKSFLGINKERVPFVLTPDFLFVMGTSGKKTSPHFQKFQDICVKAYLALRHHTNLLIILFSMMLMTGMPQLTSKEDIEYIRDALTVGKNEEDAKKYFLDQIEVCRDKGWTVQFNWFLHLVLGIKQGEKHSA

JeKo-1 = assay: Antiproliferative activity against human JeKo-1 cells assessed as cell growth inhibition incubated for 96 hrs by cell titer glo assay; assay type: functional, cell-based; conditions: JeKo-1, 96 h
Pfeiffer [8] = assay: Induction of apoptosis in human Pfeiffer cells assessed as necrotic cells at 10 uM incubated for 48 hrs by annexin V-FITC staining based flow cytometry (reference value: 6.62 %); assay type: functional
[9] = Microsomal stability in mouse liver microsomes assessed as intrinsic clearance; assay type: ADME, Microsome; conditions: read-out: CLH
Pfeiffer [10] = assay: Induction of apoptosis in human Pfeiffer cells assessed as viable […] cells at 10 uM incubated for 48 hrs by annexin V-FITC staining based flow cytometry (reference value: 81.14 %); assay type: functional
[11] = Microsomal stability in mouse liver microsomes assessed as half life; assay type: ADME, Microsome
Pfeiffer [12] = assay: Antitumor activity against human Pfeiffer cells xenografted in nude mouse assessed as tumor growth inhibition at 30 mg/kg, po BID for 21 days and measured twice weekly; assay type: functional; conditions: 504 h, time 21 day, read-out: TGI
SU-DHL-6 = assay: Antiproliferative activity against human SU-DHL-6 cells assessed as cell growth inhibition incubated for 96 hrs by cell titer glo assay; assay type: functional, cell-based; conditions: SU-DHL-6, 96 h
[13] = Toxicity in nude mouse xenografted with human Pfeiffer cells assessed as effect on body weight at 30 mg/kg, po BID for 21 days and measured twice weekly; assay type: organism-based; conditions: in vivo, 504 h, time 21 day
Pfeiffer [14] = assay: Induction of apoptosis in human Pfeiffer cells assessed as late apoptotic cells at 10 uM incubated for 48 hrs by annexin V-FITC staining based flow cytometry (reference value: 7.87 %); assay type: functional
Pfeiffer [15] = assay: Antiproliferative activity against human Pfeiffer cells assessed as cell growth inhibition incubated for 96 hrs by cell titer glo assay; assay type: functional, cell-based
[16] = Solubility of the compound in FaSSIF; assay type: physicochemical
Pfeiffer [17] = assay: Induction of apoptosis in human Pfeiffer cells assessed as viable […] cells at 2 uM incubated for 48 hrs by annexin V-FITC staining based flow cytometry (reference value: 81.14 %); assay type: functional
[18] = Plasma protein binding in mouse; assay type: ADME, cell-free; conditions: read-out: PPB (converted)
Pfeiffer [19] = assay: Induction of apoptosis in human Pfeiffer cells assessed as early apoptotic cells at 10 uM incubated for 48 hrs by annexin V-FITC staining based flow cytometry (reference value: 4.16 %); assay type: functional
[20] = biological target: Phosphatidylinositol 4,5-bisphosphate 3-kinase catalytic subunit alpha isoform (Mus musculus, UniProt P42337); assay: Inhibition of PI3Kalpha in IGF-1 stimulated mouse C2C12 cells incubated for 10 mins by AlphaLISA assay; assay type: cell-based
Chain of Phosphatidylinositol 4,5-bisphosphate 3-kinase catalytic subunit alpha isoform (Mus musculus, UniProt P42337) (P42337 whole entry, canonical isoform): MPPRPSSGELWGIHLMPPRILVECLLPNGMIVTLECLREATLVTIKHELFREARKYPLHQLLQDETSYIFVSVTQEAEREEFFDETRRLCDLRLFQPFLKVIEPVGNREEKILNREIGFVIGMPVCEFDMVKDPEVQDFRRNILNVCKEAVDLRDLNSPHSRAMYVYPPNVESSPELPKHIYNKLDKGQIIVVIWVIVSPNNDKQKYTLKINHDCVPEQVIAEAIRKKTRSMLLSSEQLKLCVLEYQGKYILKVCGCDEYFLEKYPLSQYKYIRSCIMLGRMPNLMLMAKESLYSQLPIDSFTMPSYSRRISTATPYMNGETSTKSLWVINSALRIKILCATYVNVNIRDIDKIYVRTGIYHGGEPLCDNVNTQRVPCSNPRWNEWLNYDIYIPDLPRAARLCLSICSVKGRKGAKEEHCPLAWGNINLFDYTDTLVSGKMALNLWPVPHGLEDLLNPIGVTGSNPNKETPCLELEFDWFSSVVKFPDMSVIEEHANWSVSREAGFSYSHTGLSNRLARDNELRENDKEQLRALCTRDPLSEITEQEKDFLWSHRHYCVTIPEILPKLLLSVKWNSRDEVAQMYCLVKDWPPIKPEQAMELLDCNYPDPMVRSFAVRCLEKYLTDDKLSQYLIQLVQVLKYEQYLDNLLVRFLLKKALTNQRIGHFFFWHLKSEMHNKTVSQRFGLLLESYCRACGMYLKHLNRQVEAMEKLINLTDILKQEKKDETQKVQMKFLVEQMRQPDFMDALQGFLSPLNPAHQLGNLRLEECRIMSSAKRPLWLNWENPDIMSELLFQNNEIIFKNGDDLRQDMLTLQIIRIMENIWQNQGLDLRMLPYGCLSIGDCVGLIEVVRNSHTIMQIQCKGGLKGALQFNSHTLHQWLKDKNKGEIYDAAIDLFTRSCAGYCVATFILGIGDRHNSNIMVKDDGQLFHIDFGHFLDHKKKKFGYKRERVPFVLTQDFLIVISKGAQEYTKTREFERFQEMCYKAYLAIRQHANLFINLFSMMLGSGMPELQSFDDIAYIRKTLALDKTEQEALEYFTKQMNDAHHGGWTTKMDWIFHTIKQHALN

[21] = biological target: T2, Phosphatidylinositol 4,5-bisphosphate 3-kinase catalytic subunit beta isoform; assay: Inhibition of PI3Kbeta (unknown origin) using PIP2 as substrate measured after 1 hr in presence of ATP by ADP-glo luminescence assay
SUD4 = assay: Antiproliferative activity against human SU-DHL-4 cells assessed as cell growth inhibition incubated for 96 hrs by cell titer glo assay; assay type: functional, cell-based; conditions: SU-DHL-4, 96 h
DOHH-2 = assay: Antiproliferative activity against human DOHH-2 cells assessed as cell growth inhibition incubated for 96 hrs by cell titer glo assay; assay type: functional, cell-based; conditions: DOHH-2, 96 h
[22] = biological target: Phosphatidylinositol 4,5-bisphosphate 3-kinase catalytic subunit gamma isoform (Mus musculus, UniProt Q9JHG7); assay: Inhibition of PI3Kgamma in C5a stimulated mouse RAW264.7 cells incubated for 10 mins by AlphaLisa assay; assay type: cell-based
Chain of Phosphatidylinositol 4,5-bisphosphate 3-kinase catalytic subunit gamma isoform (Mus musculus, UniProt Q9JHG7) (Q9JHG7 whole entry, canonical isoform): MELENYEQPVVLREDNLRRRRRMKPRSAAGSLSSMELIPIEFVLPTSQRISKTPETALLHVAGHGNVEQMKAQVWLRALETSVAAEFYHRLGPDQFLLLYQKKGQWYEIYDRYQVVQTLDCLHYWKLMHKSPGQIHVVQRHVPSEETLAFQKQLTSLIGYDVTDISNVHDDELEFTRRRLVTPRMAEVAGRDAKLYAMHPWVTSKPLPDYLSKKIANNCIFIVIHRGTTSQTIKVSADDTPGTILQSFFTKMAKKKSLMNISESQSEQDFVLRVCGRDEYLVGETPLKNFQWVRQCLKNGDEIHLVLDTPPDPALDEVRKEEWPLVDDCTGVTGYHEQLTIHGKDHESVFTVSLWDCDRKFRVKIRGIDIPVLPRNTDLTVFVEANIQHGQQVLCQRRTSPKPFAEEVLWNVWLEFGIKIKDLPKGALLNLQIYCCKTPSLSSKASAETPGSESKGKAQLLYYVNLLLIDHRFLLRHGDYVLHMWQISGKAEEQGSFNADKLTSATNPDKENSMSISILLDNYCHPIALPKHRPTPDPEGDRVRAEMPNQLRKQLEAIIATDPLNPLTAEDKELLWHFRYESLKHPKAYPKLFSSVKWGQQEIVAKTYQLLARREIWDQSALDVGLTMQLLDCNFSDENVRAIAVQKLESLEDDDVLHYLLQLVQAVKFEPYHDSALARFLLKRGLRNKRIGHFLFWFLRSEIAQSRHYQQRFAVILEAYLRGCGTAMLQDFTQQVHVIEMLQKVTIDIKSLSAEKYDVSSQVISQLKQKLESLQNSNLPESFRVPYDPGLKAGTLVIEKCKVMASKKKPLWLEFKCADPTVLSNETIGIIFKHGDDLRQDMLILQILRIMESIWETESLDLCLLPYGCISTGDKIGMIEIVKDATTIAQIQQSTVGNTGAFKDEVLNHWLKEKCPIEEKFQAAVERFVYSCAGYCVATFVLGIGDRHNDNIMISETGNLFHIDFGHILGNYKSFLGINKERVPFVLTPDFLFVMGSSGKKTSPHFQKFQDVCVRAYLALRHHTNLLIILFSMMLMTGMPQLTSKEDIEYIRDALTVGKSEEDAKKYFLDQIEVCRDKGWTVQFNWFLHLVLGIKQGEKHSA

Pfeiffer [23] = assay: Induction of apoptosis in human Pfeiffer cells assessed as late apoptotic cells at 2 uM incubated for 48 hrs by annexin V-FITC staining based flow cytometry (reference value: 7.87 %); assay type: functional
Pfeiffer [24] = assay: Induction of apoptosis in human Pfeiffer cells assessed as early apoptotic cells at 2 uM incubated for 48 hrs by annexin V-FITC staining based flow cytometry (reference value: 4.16 %); assay type: functional
[25] = biological target: T1, Phosphatidylinositol 4,5-bisphosphate 3-kinase catalytic subunit delta isoform; assay: Inhibition of PI3Kdelta in IgM stimulated human Raji cells incubated for 10 mins by AlphaLISA assay; assay type: cell-based

SMILES: CCC(=O)N1CC[C@H](Nc2ncnc3sc(-c4cnc(OC)c(C(F)(F)F)c4)cc23)C1
IC50 [1]: 0.103 µM | IC50 [2]: 2.06 µM

SMILES: CCC(=O)N1CC[C@H](Nc2ncnc3sc(-c4cnc(OC)c(C)c4)cc23)C1
IC50 [1]: 0.045 µM | IC50 [2]: 6.29 µM

SMILES: COc1cc(-c2cc3c(N[C@H]4CCN(C(=O)C5CCCCC5)C4)ncnc3s2)cnc1OC
IC50 [1]: 0.03 µM | IC50 [2]: 0.718 µM

SMILES: CCC(=O)N1CC[C@H](Nc2ncnc3sc(-c4cnc(OC)c(F)c4)cc23)C1
IC50 [1]: 0.054 µM | IC50 [2]: 3.41 µM

SMILES: CCC(=O)N1CC[C@H](Nc2ncnc3sc(-c4ccc(F)c(C#N)c4)cc23)C1
IC50 [1]: 1.01 µM | IC50 [2]: > 10 µM

SMILES: CCC(=O)N1CC[C@H](Nc2ncnc3sc(-c4ccc(OC)c(OC)c4)cc23)C1
IC50 [1]: 0.021 µM | IC50 [2]: 0.589 µM

SMILES: COc1cc(-c2cc3c(N[C@H]4CCN(C(=O)C5CCCC5)C4)ncnc3s2)cnc1OC
IC50 [1]: 0.0085 µM | IC50 [2]: 0.483 µM

SMILES: CCC(=O)N1CC[C@H](Oc2ncnc3sc(-c4cnc(OC)c(C#N)c4)cc23)C1
IC50 [1]: 0.156 µM | IC50 [2]: 7.33 µM

SMILES: CCC(=O)N1CC[C@H](Nc2ncnc3sc(-c4cnc(OC)c(C#N)c4)cc23)C1
IC50 [1]: 0.06 µM | IC50 [2]: 4.03 µM

The next molecules have a lower IC50 [2] than those just listed; values first:

IC50 [1]: 0.01 µM | IC50 [2]: 0.411 µM
SMILES: COc1cc(-c2cc3c(O[C@H]4CCN(C(=O)C(C)C)C4)ncnc3s2)cnc1OC

IC50 [3]: > 10 µM | IC50 [4]: 6.2 µM | solubility [6]: 1.41 µM (≈ 0.621 µg/mL) | IC50 [7]: 2.86 µM | CLint scaled [9]: 1070 mL/min/kg | half-life [11]: 5.09 min | solubility [16]: 5.89 µM (≈ 2.59 µg/mL) | IC50 [1]: 0.0033 µM | IC50 [25]: 0.0757 µM | fraction unbound [18]: 0.011 | IC50 [2]: 0.392 µM | IC50 [20]: 28.3 µM | IC50 [21]: 1.96 µM | IC50 [22]: 5.99 µM
SMILES: COc1cc(-c2cc3c(O[C@H]4CCN(C(=O)C5CCC5)C4)ncnc3s2)cnc1OC

IC50 [1]: 0.01 µM | IC50 [2]: 0.322 µM
SMILES: COc1cc(-c2cc3c(O[C@H]4CCN(C(=O)C5CC5)C4)ncnc3s2)cnc1OC

IC50 [3]: > 10 µM | IC50 [4]: 4.21 µM | solubility [6]: 5.67 µM (≈ 2.49 µg/mL) | IC50 [7]: 1.99 µM | CLint scaled [9]: 342 mL/min/kg | half-life [11]: 15.9 min | solubility [16]: 39.7 µM (≈ 17.4 µg/mL) | IC50 [1]: 0.0022 µM | IC50 [25]: 0.0337 µM | fraction unbound [18]: 0.01 | IC50 [2]: 0.172 µM | IC50 [20]: 20.8 µM | IC50 [21]: 1.37 µM | IC50 [22]: 4.78 µM
SMILES: COc1cc(-c2cc3c(N[C@H]4CCN(C(=O)C5CCC5)C4)ncnc3s2)cnc1OC

IC50 [3]: > 10 µM | IC50 [4]: 2.68 µM | solubility [6]: 57.9 µM (≈ 26.1 µg/mL) | IC50 [7]: 0.902 µM | CLint scaled [9]: 355 mL/min/kg | half-life [11]: 15.4 min | IC50 (SU-DHL-6): 0.77 µM | solubility [16]: 77.6 µM (≈ 35 µg/mL) | fraction unbound [18]: 0.066 | IC50 [2]: 0.0755 µM | IC50 [20]: 19.6 µM | IC50 [21]: 0.363 µM | IC50 [22]: 4.04 µM
SMILES: CCC(=O)N1CC[C@H](Nc2ncnc3c2CN(c2cnc(OC)c(C(F)(F)F)c2)CC3)C1 [LENIOLISIB]
Activity (Pfeiffer [5]): 4.76% | IC50 (Rec1): 1.28 µM | IC50 (Z-138): 31.2 µM | IC50 (JeKo-1): 31.7 µM | Activity (Pfeiffer [8]): 5.69% | Activity (Pfeiffer [10]): 75.9% | inhibition in vivo at 30 mg/kg (Pfeiffer [12]): 53.8% | Activity [13]: 10% | Activity (Pfeiffer [14]): 12.88% | IC50 (Pfeiffer [15]): 3.75 µM | Activity (Pfeiffer [17]): 78.31% | Activity (Pfeiffer [19]): 5.53% | IC50 (SUD4): 8.25 µM | IC50 (DOHH-2): 29.2 µM | Activity (Pfeiffer [23]): 11.23% | Activity (Pfeiffer [24]): 5.7%

Reference: ChEMBL document CHEMBL5154925, “Design and Optimization of Thienopyrimidine Derivatives as Potent and Selective PI3Kδ Inhibitors for the Treatment of B-Cell Malignancies” (J Med Chem, 2022)
